Reference: ChEMBL document CHEMBL1128481, “Synthesis, structure elucidation, and biochemical evaluation of 7 alpha- and 7 beta-arylaliphatic-substituted androst-4-ene-3,17-diones as inhibitors of aromatase” (J Med Chem, 1995)

How the values were obtained:
[1] = target: T1, Aromatase (Homo sapiens, UniProt P11511)
T1 sequence (P11511 whole entry): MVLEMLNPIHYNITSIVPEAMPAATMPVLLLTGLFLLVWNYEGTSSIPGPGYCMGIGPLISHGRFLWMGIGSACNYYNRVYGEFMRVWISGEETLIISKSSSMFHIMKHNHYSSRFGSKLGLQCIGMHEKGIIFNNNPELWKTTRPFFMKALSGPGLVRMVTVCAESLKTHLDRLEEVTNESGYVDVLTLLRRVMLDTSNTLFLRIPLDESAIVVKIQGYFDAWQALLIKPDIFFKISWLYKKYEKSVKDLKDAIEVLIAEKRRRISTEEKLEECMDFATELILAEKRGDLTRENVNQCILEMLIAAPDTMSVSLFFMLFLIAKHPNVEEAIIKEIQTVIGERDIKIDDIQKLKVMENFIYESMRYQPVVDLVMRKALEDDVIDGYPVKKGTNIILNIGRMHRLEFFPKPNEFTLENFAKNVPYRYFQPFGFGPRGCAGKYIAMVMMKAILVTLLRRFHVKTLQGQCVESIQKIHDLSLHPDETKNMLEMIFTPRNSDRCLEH
Description: Inhibition of human placental Cytochrome P450 19A1 at 250 nM

[2] = target: T1, Aromatase; test: Inhibition of human placental Cytochrome P450 19A1 at 100 nM
[3] = target: T1, Aromatase; remark: listed apart in the source
[4] = target: T1, Aromatase; remark: listed apart in the source
Description: Apparent binding affinity for human placental Cytochrome P450 19A1

| Structure (SMILES) | inhibition at 0.25 µM [1] | inhibition at 0.1 µM [2] | inhibition at 0.1 µM [3] | Ki [4] |
| --- | --- | --- | --- | --- |
| C[C@]12CCC(=O)C=C1C[C@@H](Sc1ccc(N)cc1)[C@@H]1[C@@H]2CC[C@]2(C)C(=O)CC[C@@H]12 | 83.9% | 70.6% |  |  |
| C[C@]12CCC(=O)C=C1C[C@H](CCc1ccccc1)[C@@H]1[C@@H]2CC[C@]2(C)C(=O)CC[C@@H]12 | 67.8% |  | 55.7% | 40.2 nM |
| C[C@]12CCC(=O)C=C1C[C@H](Cc1ccccc1)[C@@H]1[C@@H]2CC[C@]2(C)C(=O)CC[C@@H]12 | 68.9% |  | 46.7% | 44.5 nM |
| C[C@]12CC[C@H]3[C@@H]([C@H](Cc4ccccc4)CC4=CC(=O)CC[C@@]43C)[C@@H]1CC[C@@H]2O | 72.5% |  | 59.4% | 39.5 nM |
| C[C@]12CC[C@H]3[C@@H]([C@H](CCc4ccccc4)CC4=CC(=O)CC[C@@]43C)[C@@H]1CC[C@@H]2O | 56.7% |  | 45.8% | 36 nM |
| CC12CCC3C(C1CCC2=O)[C@H](Cc1ccccc1)CC1=CC(=O)CCC13C (stereo not given in full) | 81.5% |  | 64.3% | 18.9 nM |
| CC12CCC3C(C1CCC2=O)[C@H](CCc1ccccc1)CC1=CC(=O)CCC13C (stereo not given in full) | 81.6% |  | 66.1% | 13.1 nM |
